From patent publication US20250339385A1, “TOPICAL FORMULATION OF DIMETHYLCURCUMIN” (ANNJI PHARMACEUTICAL CO., LTD., priority 2021, published 2025)

Experiment: Solubility of API (Formula I) in aqueous system / solvents
Type: physicochemical
Protocol: When the API of Formula I is in the aqueous system, it forms crystals and precipitates out of solution. To investigate a compatible matrix that allows greater Formula I solubility, various systems containing Formula I were stored at room temperature for 24 hours and were examined under a polarized light microscope to observe the presence or absence of Formula I crystal precipitation.

Substance: dimethylcurcumin [Formula I]
- solubility of API in aqueous phase (aqueous system) (aqueous system): practically insoluble
- solubility of API in diethylene glycol monoethyl ether (diethylene glycol monoethyl ether): good solubility
